pIC50, pKi: −log10 of the molar value. Several values for one entry are separate records, joined by “and”; a condition that tells them apart may be missing. Identical values can stand only once. Like-named read-outs stand apart in the source and are kept apart here.
How the values were obtained:
[1] = target: T1, SARS-CoV-2 NSP3 macrodomain (Mac1) (Severe acute respiratory syndrome coronavirus 2, UniProt P0DTD1); assay: biochemical; assay type: binding; conditions: for Average % competition: Single dose, concentration 200 μM
[2] = target: T1, SARS-CoV-2 NSP3 macrodomain (Mac1); assay type: binding; conditions: for Number of isomers bound: ligand modeling, Mac1 crystal soak; for 1-BDC: PanDDA background density correction; for X-ray crystal structure: TRUE = crystal structure with ligand obtained; for Hit (PanDDA run, overall): crystal soak, 10 mM soak concentration, P43 crystal form; for Refined ligand occupancy (%): crystallographic refinement; for 2*(1-BDC) (%): occupancy estimate from PanDDA; for Binding site: site of ligand in X-ray crystal structure
[3] = SARS CoV-2 macrodomain HTRF assay, single dose concentration 200 μM, read-out: Average % competition
[4] = compound at 200 μM, mean of three to four technical replicates, read-out: % competition at 200 μM (preliminary HTRF screen)
[5] = crystal soak 10 mM, TFA/DMSO background map
[6] = SARS CoV-2 macrodomain HTRF assay
[7] = read-out: IC50 (confirmatory HTRF dose-response screen)
[8] = HTRF binding curve, SARS-CoV-2 Mac1
[9] = SARS CoV-2 macrodomain HTRF assay, dose-response
[10] = SARS CoV-2 macrodomain HTRF assay, dose-response, read-out: IC50
[11] = stereoisomer(s)/conformations of the soaked ligand modeled in the Mac1 crystal structure

Compound | pKi [1, 6] | Ligand efficiency (binding enery per heavy atom) [1, 6] | pIC50 [1, 10] | Isomers modeled [2, 11] | further results
OCC1CC2(CCC2)CN1c1ncnc2[nH]ccc12 (stereo not drawn) [AVI-3728] | – | – | – | – | inhibition at 200 µM [1, 3]: 79%; inhibition at 200 µM [1, 4]: 79%; PanDDA run, TFA/DMSO background map: 1-BDC [2, 5]: 0.26; PanDDA run, TFA/DMSO background map: Hit [2, 5]: TRUE; Number of isomers bound [2]: 1; Isomers modeled ([2]; stereoisomer(s) modeled as bound, residues 201/202/203): S,S
C[C@@H](O)[C@H](CO)Nc1ncnc2[nH]ccc12.O=C(O)C(F)(F)F [AVI-3730] | – | – | – | – | Average % competition [1]: 63%; inhibition at 200 µM [1, 4]: 63%; PanDDA run, TFA/DMSO background map: 1-BDC [2, 5]: 0.12; PanDDA run, TFA/DMSO background map: Hit [2, 5]: TRUE; Number of isomers bound [2]: 1
O=C(O)C(F)(F)F.OC1([C@H]2CCCN2c2ncnc3[nH]ccc23)Cc2ccccc2C1 [AVI-3731] | 5.47 | 0.31 | – | – | pIC50 [1, 7]: 5.43; PanDDA run, TFA/DMSO background map: 1-BDC [2, 5]: 0.14; PanDDA run, TFA/DMSO background map: Hit [2, 5]: TRUE; Number of isomers bound [2]: 1
Cc1nn(C)cc1C1CC[C@H](CO)N1c1ncnc2[nH]ccc12 (stereo partly drawn) [AVI-3733] | – | – | – | – | inhibition at 200 µM [1, 3]: 44%; inhibition at 200 µM [1, 4]: 44%; Number of isomers bound [2]: 1
OCCC(CO)Nc1ncnc2[nH]ccc12 (stereo not drawn) [AVI-3734] | 4.32 | 0.37 | – | – | pIC50 [1, 7]: 4.28; Number of isomers bound [2]: 1
Cc1c[nH]c2ncnc(NCC(C)(C)O)c12 [AVI-3758, 2-methyl-1-((5-methyl-7H-pyrrolo[2,3-d]pyrimidin-4-yl)amino)propan-2-ol] | 4.59 | 0.40 | – | – | Hill slope [1, 8]: 1.0; Hill slope [1, 9]: 1.0; pIC50 [1, 7]: 4.55; 1-BDC [2]: 0.14; X-ray crystal structure [2]: TRUE; Hit (PanDDA run, DMSO background map) ([2]; crystal soak 10 mM): TRUE; 1-BDC (PanDDA run, DMSO background map) ([2]; crystal soak 10 mM, event 1): 0.19 and 0.14; Hit (PanDDA run, overall) [2]: TRUE; Refined ligand occupancy (%) [2]: 50%; 2*(1-BDC) (%) [2]: 28%; Binding site [2]: Adenosine
Cc1c[nH]c2ncnc(NCC3(O)CCCC3)c12 [AVI-3760, 1-(((5-methyl-7H-pyrrolo[2,3-d]pyrimidin-4-yl)amino)methyl)cyclopentan-1-ol] | 4.74 | 0.36 | 4.72 | – | Hill slope [1, 8]: 1.1; Hill slope [1, 9]: 1.1; 1-BDC [2]: 0.16; X-ray crystal structure [2]: TRUE; Hit (PanDDA run, DMSO background map) ([2]; crystal soak 10 mM): TRUE; 1-BDC (PanDDA run, DMSO background map) ([2]; crystal soak 10 mM, event 1): 0.19 and 0.16; Hit (PanDDA run, overall) [2]: TRUE; Refined ligand occupancy (%) [2]: 50%; 2*(1-BDC) (%) [2]: 32%; Binding site [2]: Adenosine
C[C@@H]1CCN(c2ncnc3[nH]ccc23)[C@H](CO)C1 [AVI-4064] | 4.03 | 0.31 | 4.00 | RS,SR | –
O=C(O)C(F)(F)F.OC[C@H](Cc1ccc(O)cc1)Nc1ncnc2[nH]ccc12 [AVI-4066] | 3.17 | 0.21 | 3.14 | – | Hit (PanDDA run, TFA/DMSO background map) [2, 5]: TRUE; 1-BDC (PanDDA run, TFA/DMSO background map) ([2]; crystal soak 10 mM, TFA/DMSO background map, event 1): 0.19 and 0.29 and 0.3
CC(C)(O)C1N(c2ncnc3[nH]ccc23)CCC1(C)C (stereo not drawn) [AVI-4126] | 4.03 | 0.28 | 4.00 | R,S | –
CC(C)(O)C1C2CCCCC2CN1c1ncnc2[nH]ccc12 (stereo not drawn) [AVI-4127] | 3.92 | 0.25 | 3.89 | SSR,SRS | –
CC(C)(O)C1C2CCC2CN1c1ncnc2[nH]ccc12 (stereo not drawn) [AVI-4128] | 4.66 | 0.32 | – | SRR | pIC50 [1, 7]: 4.62
CC1CCC(O)(CNc2ncnc3[nH]ccc23)CC1 (stereo not drawn) [AVI-4312] | 4.70 | 0.34 | 4.68 | rr | –
Cc1c[nH]c2ncnc(NCC3(O)CCC(C)CC3)c12 (stereo not drawn) [AVI-4331] | – | 0.26 | 3.68 | rr | –
CC(O)C(C)Nc1ncnc2[nH]ccc12 (stereo not drawn) [AVI-5158] | – | – | – | RS,RR | Average % competition [1]: 32%; inhibition at 200 µM [1, 4]: 32%
CC1(C)CCN(c2ncnc3[nH]ccc23)C(CO)C1 (stereo not drawn) [AVI-5994] | 4.20 | 0.31 | 4.17 | S,S | –
O[C@H]1CC[C@H]2CCN(c3ncnc4[nH]ccc34)[C@H]21 [AVI-5997] | 4.47 | 0.34 | 4.43 | SSR | –
OC1CCC(O)(CNc2ncnc3[nH]ccc23)CC1 (stereo not drawn) [AVI-6220] | 3.62 | 0.26 | 3.59 | rr,rr | –

Source: paper PMC12118597 (Science Advances, 2025)
